One block for each compound: values may come before it.
Test system: 565726-208-R1-J5-PDC complex spheroids, growth inhibition
Test: Anticancer human tumor 565726-208-R1-J5-PDC patient-derived pancreatic adenocarcinoma cell line growth inhibition [RAS]
Details: for IC50: curve of first compound; for viability, T/C: stronger effect = lower value
Outline: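 Agents were tested in combination matrices in half-log decrements from a top concentration at or near clinical Cmax (10 microM if undetermined). Targets were multi-cell spheroids of tumour lines plus HUVEC and MSC stromal cells.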

[1] = second compound 0.000949 µM, first compound 0.00316 µM
[2] = second compound 0.000949 µM, first compound 0.01 µM
[3] = second compound 0.000949 µM, first compound 0.0316 µM
[4] = second compound 0.000949 µM, first compound 0.1 µM
[5] = second compound 0.000949 µM, first compound 0.316 µM
[6] = second compound 0.000949 µM, first compound 1 µM
[7] = second compound 0.003 µM, first compound 0.00316 µM
[8] = second compound 0.003 µM, first compound 0.01 µM
[9] = second compound 0.003 µM, first compound 0.0316 µM
[10] = second compound 0.003 µM, first compound 0.1 µM
[11] = second compound 0.003 µM, first compound 0.316 µM
[12] = second compound 0.003 µM, first compound 1 µM
[13] = second compound 0.00949 µM, first compound 0.00316 µM
[14] = second compound 0.00949 µM, first compound 0.01 µM
[15] = second compound 0.00949 µM, first compound 0.0316 µM
[16] = second compound 0.00949 µM, first compound 0.1 µM
[17] = second compound 0.00949 µM, first compound 0.316 µM
[18] = second compound 0.00949 µM, first compound 1 µM
[19] = second compound 0.03 µM, first compound 0.00316 µM
[20] = second compound 0.03 µM, first compound 0.01 µM
[21] = second compound 0.03 µM, first compound 0.0316 µM
[22] = second compound 0.03 µM, first compound 0.1 µM
[23] = second compound 0.03 µM, first compound 0.316 µM
[24] = second compound 0.03 µM, first compound 1 µM
[25] = second compound 0.0949 µM, first compound 0.00316 µM
[26] = second compound 0.0949 µM, first compound 0.01 µM
[27] = second compound 0.0949 µM, first compound 0.0316 µM
[28] = second compound 0.0949 µM, first compound 0.1 µM
[29] = second compound 0.0949 µM, first compound 0.316 µM
[30] = second compound 0.0949 µM, first compound 1 µM
[31] = second compound 0.3 µM, first compound 0.00316 µM
[32] = second compound 0.3 µM, first compound 0.01 µM
[33] = second compound 0.3 µM, first compound 0.0316 µM
[34] = second compound 0.3 µM, first compound 0.1 µM
[35] = second compound 0.3 µM, first compound 0.316 µM
[36] = second compound 0.3 µM, first compound 1 µM
[37] = second compound 0.000949 µM, first compound 3.16 µM
[38] = second compound 0.000949 µM, first compound 10 µM
[39] = second compound 0.003 µM, first compound 3.16 µM
[40] = second compound 0.003 µM, first compound 10 µM
[41] = second compound 0.00949 µM, first compound 3.16 µM
[42] = second compound 0.00949 µM, first compound 10 µM
[43] = second compound 0.03 µM, first compound 3.16 µM
[44] = second compound 0.03 µM, first compound 10 µM
[45] = second compound 0.0949 µM, first compound 3.16 µM
[46] = second compound 0.0949 µM, first compound 10 µM
[47] = second compound 0.3 µM, first compound 3.16 µM
[48] = second compound 0.3 µM, first compound 10 µM
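Also: spheroids exposed to compounds for seven days before readout.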
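For viability, T/C in this document: 100% = DMSO vehicle control viability.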

IC50 (second compound 0.000949 µM): 185 nM
IC50 (second compound 0.003 µM): 11 nM
IC50 (second compound 0.00949 µM): < 3.16 nM
IC50 (second compound 0.03 µM): < 3.16 nM
IC50 (second compound 0.0949 µM): < 3.16 nM
IC50 (second compound 0.3 µM): < 3.16 nM
SMILES: C=CC(=O)Nc1cc(Nc2nccc(-c3cn(C)c4ccccc34)n2)c(OC)cc1N(C)CCN(C)C + CCn1c(-c2cc(N3CCN(C)CC3)cnc2C(C)OC)c2c3cc(ccc31)-c1csc(n1)CC(NC(=O)C1CC1C)C(=O)N1CCCC(N1)C(=O)OCC(C)(C)C2
viability, T/C [1]: 63.2%
viability, T/C [2]: 62.6%
viability, T/C [3]: 59.9%
viability, T/C [4]: 56.4%
viability, T/C [5]: 44.6%
viability, T/C [6]: 34.3%
viability, T/C [7]: 58.9%
viability, T/C [8]: 44.3%
viability, T/C [9]: 49.2%
viability, T/C [10]: 38.8%
viability, T/C [11]: 36.1%
viability, T/C [12]: 28.2%
viability, T/C [13]: 43.2%
viability, T/C [14]: 38.3%
viability, T/C [15]: 34.9%
viability, T/C [16]: 30.9%
viability, T/C [17]: 24.7%
viability, T/C [18]: 20.4%
viability, T/C [19]: 30.4%
viability, T/C [20]: 30.1%
viability, T/C [21]: 29.6%
viability, T/C [22]: 25.1%
viability, T/C [23]: 19%
viability, T/C [24]: 15.5%
viability, T/C [25]: 28.3%
viability, T/C [26]: 24.6%
viability, T/C [27]: 21.4%
viability, T/C [28]: 18.2%
viability, T/C [29]: 16.4%
viability, T/C [30]: 14.7%
viability, T/C [31]: 23.4%
viability, T/C [32]: 21.2%
viability, T/C [33]: 18.8%
viability, T/C [34]: 16.3%
viability, T/C [35]: 15.5%
viability, T/C [36]: 11.6%

IC50 (second compound 0.000949 µM): 1520 nM
IC50 (second compound 0.003 µM): 347 nM
IC50 (second compound 0.00949 µM): < 31.6 nM
IC50 (second compound 0.03 µM): < 31.6 nM
IC50 (second compound 0.0949 µM): < 31.6 nM
IC50 (second compound 0.3 µM): < 31.6 nM
SMILES: CC(C)NCC(C(=O)N1CCN(c2ncnc3c2C(C)CC3O)CC1)c1ccc(Cl)cc1 (stereo not drawn) + CCn1c(-c2cc(N3CCN(C)CC3)cnc2C(C)OC)c2c3cc(ccc31)-c1csc(n1)CC(NC(=O)C1CC1C)C(=O)N1CCCC(N1)C(=O)OCC(C)(C)C2
viability, T/C [3]: 66.7%
viability, T/C [4]: 64.6%
viability, T/C [5]: 62.8%
viability, T/C [6]: 51.7%
viability, T/C [37]: 43.9%
viability, T/C [38]: 28.7%
viability, T/C [9]: 59.2%
viability, T/C [10]: 58.8%
viability, T/C [11]: 48.7%
viability, T/C [12]: 41.2%
viability, T/C [39]: 38.3%
viability, T/C [40]: 21.4%
viability, T/C [15]: 42.5%
viability, T/C [16]: 41.8%
viability, T/C [17]: 38.5%
viability, T/C [18]: 34.5%
viability, T/C [41]: 33.1%
viability, T/C [42]: 18.3%
viability, T/C [21]: 32%
viability, T/C [22]: 34.1%
viability, T/C [23]: 30.6%
viability, T/C [24]: 28.5%
viability, T/C [43]: 24.7%
viability, T/C [44]: 14.7%
viability, T/C [27]: 27%
viability, T/C [28]: 25.5%
viability, T/C [29]: 26.7%
viability, T/C [30]: 21%
viability, T/C [45]: 17.9%
viability, T/C [46]: 12.5%
viability, T/C [33]: 25.5%
viability, T/C [34]: 22.5%
viability, T/C [35]: 22.1%
viability, T/C [36]: 18.8%
viability, T/C [47]: 19.7%
viability, T/C [48]: 12%

IC50 (second compound 0.000949 µM): 316 nM
IC50 (second compound 0.003 µM): < 31.6 nM
IC50 (second compound 0.00949 µM): < 31.6 nM
IC50 (second compound 0.03 µM): < 31.6 nM
IC50 (second compound 0.0949 µM): < 31.6 nM
IC50 (second compound 0.3 µM): < 31.6 nM
SMILES: CC(Nc1ccc2c(c1)OCCn1cc(N3C(=O)OCC3C(F)F)nc1-2)C(N)=O (stereo not drawn) + CCn1c(-c2cc(N3CCN(C)CC3)cnc2C(C)OC)c2c3cc(ccc31)-c1csc(n1)CC(NC(=O)C1CC1C)C(=O)N1CCCC(N1)C(=O)OCC(C)(C)C2
viability, T/C [3]: 62.7%
viability, T/C [4]: 49%
viability, T/C [5]: 50.6%
viability, T/C [6]: 47.7%
viability, T/C [37]: 40.2%
viability, T/C [38]: 32.9%
viability, T/C [9]: 49.7%
viability, T/C [10]: 48.4%
viability, T/C [11]: 39.7%
viability, T/C [12]: 37.2%
viability, T/C [39]: 36.3%
viability, T/C [40]: 24.2%
viability, T/C [15]: 44.5%
viability, T/C [16]: 37.4%
viability, T/C [17]: 32.9%
viability, T/C [18]: 29.6%
viability, T/C [41]: 26.4%
viability, T/C [42]: 19.5%
viability, T/C [21]: 31.9%
viability, T/C [22]: 26.9%
viability, T/C [23]: 26.8%
viability, T/C [24]: 24.9%
viability, T/C [43]: 22.4%
viability, T/C [44]: 13.3%
viability, T/C [27]: 24.8%
viability, T/C [28]: 24.6%
viability, T/C [29]: 23.1%
viability, T/C [30]: 18.5%
viability, T/C [45]: 18.4%
viability, T/C [46]: 12.1%
viability, T/C [33]: 22.6%
viability, T/C [34]: 20.9%
viability, T/C [35]: 20.1%
viability, T/C [36]: 19.3%
viability, T/C [47]: 15.6%
viability, T/C [48]: 10.7%

IC50 (second compound 0.000949 µM): 103 nM
IC50 (second compound 0.003 µM): 10.2 nM
IC50 (second compound 0.00949 µM): < 3.16 nM
IC50 (second compound 0.03 µM): < 3.16 nM
IC50 (second compound 0.0949 µM): < 3.16 nM
IC50 (second compound 0.3 µM): < 3.16 nM
SMILES: O=C(c1ccc(F)c(F)c1Nc1ccc(I)cc1F)N1CC(O)([C@@H]2CCCCN2)C1 + CCn1c(-c2cc(N3CCN(C)CC3)cnc2C(C)OC)c2c3cc(ccc31)-c1csc(n1)CC(NC(=O)C1CC1C)C(=O)N1CCCC(N1)C(=O)OCC(C)(C)C2
viability, T/C [1]: 66.8%
viability, T/C [2]: 59.9%
viability, T/C [3]: 63.8%
viability, T/C [4]: 49.5%
viability, T/C [5]: 29.4%
viability, T/C [6]: 9.76%
viability, T/C [7]: 55.3%
viability, T/C [8]: 49.6%
viability, T/C [9]: 40.7%
viability, T/C [10]: 25.4%
viability, T/C [11]: 14%
viability, T/C [12]: 6.79%
viability, T/C [13]: 39.3%
viability, T/C [14]: 36.5%
viability, T/C [15]: 27.8%
viability, T/C [16]: 16.7%
viability, T/C [17]: 7.84%
viability, T/C [18]: 4.42%
viability, T/C [19]: 23.9%
viability, T/C [20]: 23.5%
viability, T/C [21]: 18.2%
viability, T/C [22]: 8.87%
viability, T/C [23]: 4.75%
viability, T/C [24]: 4.55%
viability, T/C [25]: 17.6%
viability, T/C [26]: 12.8%
viability, T/C [27]: 8.13%
viability, T/C [28]: 5.18%
viability, T/C [29]: 4.88%
viability, T/C [30]: 4.22%
viability, T/C [31]: 14.9%
viability, T/C [32]: 12.6%
viability, T/C [33]: 6.29%
viability, T/C [34]: 4%
viability, T/C [35]: 3.7%
viability, T/C [36]: 3.03%

— PubChem BioAssay AID2060899 (Molecular Pharmacology Branch, DTP, NCI, 2025)
